# Laboratory results taken from patent US20240368191A1, “HETEROCYCLIC COMPOUNDS AND USES THEREOF” (Kumquat Biosciences Inc., priority 2021, published 2024).
# How the values were obtained:
# [1] = target: T1, KRAS G12D 1-169 (His-tagged, GDP-loaded) (Homo sapiens, UniProt P01116, G12D); assay: Covalent modification of KRAS protein by intact-protein LC-MS; type: binding; settings: comparable or same conditions as K-Ras G12S
# T1 construct: His -tagged GDP-loaded G12D 1-169; made in house; host or cells: E. coli, e.g. BL21 (DE3)
# In short: (§1)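 Percent modification is derived from deconvoluted intact-protein LC-ESI-MS peak intensities of adducted versus unmodified KRAS. GDP-loaded His-tagged KRAS 1-169 (~2 μM, HEPES buffer at physiological conditions) was exposed to compound for 24 hrs at room temperature, then quenched with formic acid before C4 reversed-phase separation.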
# [2] = in vitro; settings: microsomes, pH 7.4
# Protocol: The metabolic stability of a test compound is assayed at 37° C. using pooled liver microsomes (mouse or human liver microsomes). An aliquot of 10 μL of 50 μM test compound is mixed with 490 μL of 0.611 mg/mL liver microsomes, then 50 μL of the mixtures are dispensed to the 96 well tubes and warmed at 37° C. for 10 minutes. The reactions are initiated by adding 50 μL of the pre-warmed NADPH regeneration system solution (add 1.2 μL solution, 240 μl solution B, mix with 10.56 ml KPBS) and then incubated at 37° C. The final incubation solution contains 100 mM potassium phosphate (pH 7.4), 1.3 mM NADP+, 3.3 mM glucose 6-phosphate, 0.4 Unit/mL of glucose 6-phosphate dehydrogenase, 3.3 mM magnesium chloride, 0.3 mg/mL liver microsomes and 0.5 μM test article. After 0, 15, 30 and 60 minutes in a shaking incubator, the reactions are terminated by adding 100 μL of acetonitrile containing 200 nM buspirone as an internal standard. All incubations are conducted in duplicate. […] Samples are then centrifuged at 3500 rpm for 10 minutes (4° C.) using Sorvall Legend XRT Centrifuge (Thermo Scientific, GE). Supernatants (40 μL) are transferred into clean 96-deep well plates. Each well is added with 160 μL of ultrapure water (Milli-Q, Millipore Corporation) with 0.1% (v/v) formic acid (Fisher Chemical), mixed thoroughly and subjected to LC/MS/MS analysis in MRM positive ionization mode.
# All the samples are measured using a mass spectrometer (QTrap 5500 quadrupole/ion trap) coupled with a Shimadzu HPLC system. The HPLC system consisted of a Shimadzu series degasser, binary quaternary gradient pumps, column heater coupled to an autosampler, and a Phenomenex Gemini-NX, C18, 3.0 μm or Phenomenex Lunar, C8, 5.0 μM HPLC column (Phenomenex, Torrance, CA), and eluted with a mobile phase gradient consisting of Solution A (0.1% formic acid water) and Solution B (0.1% formic acid acetonitrile). The column temperature is maintained at 40° C. All the analytes are detected with positive-mode electrospray ionization (ES+).
# The half-life for the metabolic degradation of the test compound is calculated by plotting the time-course disappearance of the test compound during the incubation with liver microsomes. Each plot is fitted to a first-order equation for the elimination of the test compound (% remaining compound) versus time using non-linear regression (Equation 1).
# where Ct is the mean relative substrate concentration at time t and C0 is the initial concentration (0.5 μM) at time 0. Note that the area ratio of the substrate peak to an internal standard peak is proportional to the analyte concentration and is used for regression analysis to derive a value of k.
# [3] = target: T2, K-Ras G12S (Homo sapiens, UniProt P01116, G12S); assay: HTRF assay, K-Ras G12S / SOS1 interaction; type: biochemical; settings: IC50 against K-Ras G12D divided by IC50 against K-Ras G12S
# T2 construct: made in house; host or cells: E. coli, e.g. BL21 (DE3)
# Text: This assay can be also used to assess a selective inhibition or reduction of signaling output of a mutant Ras protein relative to a wildtype, or relative to a different mutant Ras protein. For example, the equilibrium interaction of wildtype Kras or K-Ras mutant (e.g., wildtype or a mutant thereof including those mentioned in Example 6) with SOS1 (e.g., hSOS1) can be assessed as a proxy or an indication for a subject compound's ability to bind and inhibit Ras protein. HTRF assay detects from (i) a fluorescence resonance energy transfer (FRET) donor (e.g., antiGST-Europium) that is bound to GST-tagged K-Ras mutant to (ii) a FRET acceptor (e.g., anti-6His -XL665) bound to a His -tagged hSOS1.
# The assay buffer can contain ˜5 mM HEPES pH 7.4, ˜150 mM NaCl, ˜1 mM DTT, 0.05% BSA and 0.0025% (v/v) Igepal. A Ras working solution is prepared in an assay buffer containing typically a suitable amount of the protein construct (e.g., GST-tagged K-Ras mutant) and the FRET donor (e.g., antiGST-Eu(K) from Cisbio, France). A SOS1 working solution is prepared in an assay buffer containing suitable amount of the protein construct (e.g., His -hSOS1) and the FRET acceptor (e.g., anti-6His -XL665 from Cisbio, France). A suitable amount of the protein construct will depend on the range of activity or range of IC50 values being detected or under investigation. For detecting IC50 within a range of 500 nM, the protein constructs of the same range of molarity can be utilized.
# A fixed volume of DMSO with or without test compound is transferred into a 384-well plate. Ras working solution is added to all wells of the test plate. SOS1 working solution is added to all wells except for those that are subsequently filled the inhibitor control solution. Upon incubation for about 10 minutes or longer, the fluorescence is measured with a M1000Pro plate reader (Tecan) using HTRF detection (excitation 337 nm, emission 1: 620 nm, emission 2: 665 nm). Compounds are tested in duplicates at different concentrations (for example, 10 μM, 2.5 μM, 0.63 μM, 0.16 μM, 0.04 μM, 0.01 μM test compound). The ratiometric data (i.e., emission 2 divided by emission 1) is used to calculate IC50 values against Ras using GraphPad Prism (GraphPad software). Following this general procedure, samples were tested with or without a subject compound disclosed herein including compounds exemplified in Table 3 to assess their abilities to inhibit K-Ras G12S relative to another mutant (e.g., K-Ras G12D). Signaling output measured in terms of IC50 values can be obtained, a ratio of IC50 against one mutant relative to another mutant can be calculated. For instance, a selective reduction of K-Ras G12S signaling output can be evidenced by a ratio greater than one. In particular, a selective reduction of K-Ras G12S signaling relative to K-Ras G12D signaling is evidenced as the ratio of IC50 (against K-Ras G12D) to IC50 (against K-Ras G12S) is greater than 1.
# [4] = target: T3, KRAS G12S 1-169 (His-tagged, GDP-loaded) (Homo sapiens, UniProt P01116, G12S); assay: Covalent modification of KRAS protein by intact-protein LC-MS; type: binding; settings: for % G12S Modification at 24 hr.: KRAS G12S
# T3 construct: His -tagged GDP-loaded G12S 1-169; made in house; host or cells: E. coli, e.g. BL21 (DE3)
# In short: as §1
Compound,covalent labeling of K-Ras G12D [1],Ratio of IC50 KRAS G12D vs. IC50 KRAS G12S [3],% G12S Modification at 24 hr. [4],also measured
"N#Cc1c(N)sc2c(F)ccc(-c3ncc4c(N5CC6CCC(C5)N6C(=O)n5ccnc5C#N)nc(OC[C@@]56CCCN5C[C@H](F)C6)nc4c3F)c12 [Compound A165, 1-(3-(7-(2-amino-3-cyano-7-fluorobenzo[b]thiophen-4-yl)-8-fluoro-2-(((2R,7aS)-2-fluoro-tetrahydro-1H-pyrrolizin-7a(5H)-yl)methoxy)pyrido[4,3-d]pyrimidin-4-yl)-3,8-diaza-bicyclo[3.2.1]octane-8-carbon-yl)-1H-imidazole-2-carbonitrile]",essentially no detectable labeling,–,–,half-life at 0.5 μM [2]: > 10 min
"Nc1nc2c(-c3c(Cl)cc4c(N[C@H]5C[C@H]6CC[C@@H](C5)N6C(=O)n5cncn5)nc(OC[C@@]56CCCN5C[C@H](F)C6)nc4c3F)ccc(F)c2s1 [Compound A207, ((1R,3r,5S)-3-((7-(2-amino-7-fluorobenzo[d]thiazol-4-yl)-6-chloro-8-fluoro-2-(((2R,7aS)-2-fluorotetrahydro-1H-pyrrolizin-7a(5H)-yl)methoxy)quinazolin-4-yl)amino)-8-azabicyclo[3.2.1]-octan-8-yl)(1H-1,2,4-triazol-1-yl)methanone]",–,A (A: indicates that the ratio of IC50 against KrasG12D vs. IC50 against KrasG12S is 1-fold or greater),+++ (+++ indicates greater than 20% labelling),–
"N#Cc1cn(C(=O)N2CCC(Nc3nc(OC[C@@]45CCCN4C[C@H](F)C5)nc4c(F)c(-c5ccc(F)c6sc(N)nc56)c(Cl)cc34)CC2)cn1 [Compound A160, 1-(4-((7-(2-amino-7-fluorobenzo-[d]thiazol-4-yl)-6-chloro-8-fluoro-2-(((2R,7aS)-2-fluoro-tetrahydro-1H-pyrrolizin-7a(5H)-yl)methoxy)quinazolin-4-yl)amino)piperidine-1-car-bonyl)-1H-imidazole-4-carbo-nitrile]",–,A (A: indicates that the ratio of IC50 against KrasG12D vs. IC50 against KrasG12S is 1-fold or greater),–,–
"N#Cc1c(N)sc2c(F)ccc(-c3c(Cl)cc4c(N[C@H]5C[C@H]6CC[C@@H](C5)N6C(=O)n5cncn5)nc(OC[C@@]56CCCN5C[C@H](F)C6)nc4c3F)c12 [Compound A257, 4-(4-(((1R,3r,5S)-8-(1H-1,2,4-triazole-1-carbonyl)-8-aza-bicyclo-[3.2.1]octan-3-yl)-amino)-6-chloro-8-fluoro-2-(((2R,7aS)-2-fluorotetrahydro-1H-pyrrolizin-7a(5H)-yl)meth-oxy)quinazolin-7-yl)-2-amino-7-fluorobenzo[b]thiophene-3-carbonitrile]",essentially no detectable labeling,–,++ (++ indicates between about 1%-20% labelling),–
"N#Cc1cn(C(=O)N2C3CCC2CN(c2nc(OC[C@@]45CCCN4C[C@H](F)C5)nc4c(F)c(-c5ccc(F)c6sc(N)nc56)c(Cl)cc24)C3)cn1 [Compound A123, 1-(3-(7-(2-amino-7-fluorobenzo-[d]thiazol-4-yl)-6-chloro-8-fluoro-2-(((2R,7aS)-2-fluoro-tetrahydro-1H-pyrrolizin-7a(5H)-yl)methoxy)quinazolin-4-yl)-3,8-diazabicyclo[3.2.1]-octane-8-carbonyl)-1H-imid-azole-4-carbonitrile]",–,–,++ (++ indicates between about 1%-20% labelling),K-Ras12S engagement after 24-hour treatment ([4]; 24-hour treatment): ++ (++: indicates between 1% to 20% labelling)
"N#Cc1c(N)sc2c(F)ccc(-c3c(Cl)cc4c(N5CCN(C(=O)n6cncn6)CC(F)(F)C5)nc(OC[C@@]56CCCN5C[C@H](F)C6)nc4c3F)c12 [Compound A280, 2-amino-4-(6-chloro-4-(6,6-difluoro-4-(1H-1,2,4-triazole-1-carbonyl)-1,4-diazepan-1-yl)-8-fluoro-2-(((2R,7aS)-2-fluoro-tetrahydro-1H-pyrrolizin-7a(5H)-yl)methoxy)quinazolin-7-yl)-7-fluorobenzo[b]thio-phene-3-carbonitrile]",essentially no detectable labeling,–,+++ (+++ indicates greater than 20% labelling),–
"C#Cc1c(F)ccc2cc(O)cc(-c3ncc4c(N5CC6CCC(C5)N6C(=O)n5cnc(C#N)c5)nc(OC[C@@]56CCCN5C[C@H](F)C6)nc4c3F)c12 [Compound A255, 1-(3-(7-(8-ethynyl-7-fluoro-3-hydroxynaphthalen-1-yl)-8-fluoro-2-(((2R,7aS)-2-fluoro-tetrahydro-1H-pyrrolizin-7a(5H)-yl)methoxy)pyrido[4,3-d]pyrimidin-4-yl)-3,8-diaza-bicyclo[3.2.1]octane-8-carbon-yl)-1H-imidazole-4-carbonitrile]",essentially no detectable labeling,–,++ (++ indicates between about 1%-20% labelling),–
"2-amino-4-(6-chloro-4-(8-(5- chloro-1H-1,2,4-triazole-1- carbonyl)-3,8-diazabicyclo- [3.2.1]octan-3-yl)-8-fluoro-2- (((2R,7aS)-2-fluorotetrahydro- 1H-pyrrolizin-7a(5H)-yl)meth- oxy)quinazolin-7-yl)-7-fluoro- benzo[b]thiophene-3-carbonitrile [Compound A194]",essentially no detectable labeling,A (A: indicates that the ratio of IC50 against KrasG12D vs. IC50 against KrasG12S is 1-fold or greater),++ (++ indicates between about 1%-20% labelling),–
"N#Cc1nccn1C(=O)N1C2CCC1CN(c1nc(OC[C@@]34CCCN3C[C@H](F)C4)nc3c(F)c(-c4ccc(F)c5sc(N)nc45)c(Cl)cc13)C2 [Compound A170, 1-(3-(7-(2-amino-7-fluorobenzo-[d]thiazol-4-yl)-6-chloro-8-fluoro-2-(((2R,7aS)-2-fluoro-tetrahydro-1H-pyrrolizin-7a(5H)-yl)methoxy)quinazolin-4-yl)-3,8-diazabicyclo[3.2.1]-octane-8-carbonyl)-1H-imid-azole-2-carbonitrile]",–,–,++ (++ indicates between about 1%-20% labelling),–
"Cc1nc(C(C)C)nn1C(=O)N1CC2(C1)CN(c1nc(OC[C@@]34CCCN3C[C@H](F)C4)nc3c(F)c(-c4ccc(F)c5sc(N)c(C#N)c45)c(Cl)cc13)CCO2 [Compound A208, 2-amino-4-(6-chloro-8-fluoro-2-(((2R,7aS)-2-fluorotetrahydro-1H-pyrrolizin-7a(5H)-yl)meth-oxy)-4-(2-(3-isopropyl-5-meth-yl-1H-1,2,4-triazole-1-carbon-yl)-5-oxa-2,8-diazaspiro[3.5]-nonan-8-yl)quinazolin-7-yl)-7-fluorobenzo[b]thiophene-3-carbonitrile]",–,A (A: indicates that the ratio of IC50 against KrasG12D vs. IC50 against KrasG12S is 1-fold or greater),–,–
"(4-((7-(2-amino-7-fluorobenzo- [d]thiazol-4-yl)-6-chloro-8- fluoro-2-(((2R,7aS)-2-fluoro- tetrahydro-1H-pyrrolizin- 7a(5H)-yl)methoxy)quinazolin- 4-yl)amino)piperidin-1-yl)(2- chloro-1H-imidazol-1-yl)meth- anone [Compound A159]",–,A (A: indicates that the ratio of IC50 against KrasG12D vs. IC50 against KrasG12S is 1-fold or greater),–,–
